In PubChem BioAssay (NCI) one finds GI50 and TGI data, which are given here for 8 compounds.

Test systems include A498 renal; A549 NSCLC; ACHN renal; CCRF-CEM leukemia; HS 578T breast; HT29 colon; LOX IMVI melanoma; NCI-H23 lung; SK-MEL-2 melanoma; SNB-75 CNS.
What all share (test): inhibition of tumour cell growth, NCI panel, 48 h

Structures are written as SMILES. Values joined by “and” are separate entries in the source; they are usually repeats but may differ in a detail not shown here. Equal entries are not always repeated.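 Following 48 hours of exposure in 96-well plates, responses at five concentrations were used to interpolate endpoints linearly. At the GI50, growth is halved. TGI: total growth inhibition.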

For the compound `CN1CCN(Cc2ccc(NC(=O)c3cccc(C#Cc4c(N)ncc5ccc(F)cc45)c3)cc2C(F)(F)F)CC1`, the GI50 with A498 renal was 0.578 µM; in the assay with A549 NSCLC it was 0.877 µM; in the assay on ACHN renal, 0.509 µM; with CCRF-CEM leukemia it was 0.989 µM; in the assay on HS 578T breast, 0.627 µM; with HT29 colon, 0.391 µM. Besides, the GI50 was 0.597 µM in the assay on LOX IMVI melanoma, 0.865 µM with NCI-H23 lung, 0.923 µM in the assay on SK-MEL-2 melanoma and 0.257 µM with SNB-75 CNS. In addition, the TGI was found to be 1.26 µM in the assay on A498 renal; 1.77 µM in the assay on A549 NSCLC; 1.1 µM in the assay on ACHN renal; 2.58 µM in the assay on CCRF-CEM leukemia; 1.97 µM in the assay on HS 578T breast; 1.87 µM in the assay with HT29 colon. The TGI is 1.25 µM with LOX IMVI melanoma, 1.67 µM in the assay on NCI-H23 lung, 2.09 µM with SK-MEL-2 melanoma and 0.866 µM with SNB-75 CNS.
In the case of `CC(C)Cc1ccc(C(C)/C=C2\CCC(CN3CCCCC3)C2=O)cc1` (stereo unspecified), the TGI came out at 28.2 µM in the assay with A498 renal; 39.9 µM with A549 NSCLC; 19.9 µM in the assay on ACHN renal; 5.51 µM with CCRF-CEM leukemia; 45.6 µM in the assay with HS 578T breast; 15.9 µM in the assay with HT29 colon. Moreover, the TGI in the assay on LOX IMVI melanoma is 3.99 µM; in the assay with NCI-H23 lung, 20.8 µM; in the assay with SK-MEL-2 melanoma, 27 µM; with SNB-75 CNS, 33.7 µM.
As for `O=C1c2ccccc2-c2c1c1ccc([N+](=O)[O-])cc1c(=O)n2CCCn1ccnc1`, the GI50 was 0.525 µM with A498 renal; 3.17 µM with A549 NSCLC; 0.605 µM with HS 578T breast; below 0.0418 µM with HT29 colon; 0.152 µM in the assay on LOX IMVI melanoma; 0.119 µM in the assay with NCI-H23 lung. Also, the GI50 in the assay on SK-MEL-2 melanoma was 1.06 µM. The TGI in the assay with A498 renal was 8.88 µM; with A549 NSCLC it was 21.9 µM; in the assay with ACHN renal it was 0.704 µM; in the assay with CCRF-CEM leukemia, 0.785 µM; in the assay on HS 578T breast it was 10.2 µM; in the assay with HT29 colon, 10.9 µM. Besides, the TGI in the assay with LOX IMVI melanoma stood at 0.33 µM; in the assay with NCI-H23 lung it was 0.292 µM; with SK-MEL-2 melanoma it was 3.27 µM; in the assay with SNB-75 CNS, 0.862 µM.
Turning to `NC(Cc1c[nH]c2cc(F)ccc12)C(=O)O` (stereo unspecified), the GI50 was above 2500 µM with A498 renal; 1150 µM with A549 NSCLC; 1640 µM in the assay on ACHN renal; 1240 µM in the assay with CCRF-CEM leukemia; 1780 µM in the assay with HS 578T breast; 850 µM with HT29 colon. Also, the GI50 in the assay with LOX IMVI melanoma was 820 µM; in the assay on NCI-H23 lung it was 1010 µM; in the assay on SK-MEL-2 melanoma, 1910 µM; in the assay with SNB-75 CNS it was 1940 µM. The TGI in the assay with A498 renal, in the assay with A549 NSCLC, in the assay with ACHN renal, in the assay on CCRF-CEM leukemia, in the assay on HS 578T breast and with HT29 colon was above 2500 µM in each case. Further, the TGI in the assay with LOX IMVI melanoma, in the assay on NCI-H23 lung, in the assay on SK-MEL-2 melanoma and with SNB-75 CNS was above 2500 µM throughout.
Consider `COC1C(O)CC(OC2CC(OC3CC(O[C@@H]4C(=O)c5c(cc6cc(OC7CC(OC8CC(O)C(O)C(C)O8)C(O)C(C)O7)c(C)c(O)c6c5O)CC4[C@H](OC)[C@@H](O)C(C)=O)OC(C)C3O)OC(C)C2O)OC1C` (stereo partly specified), for which the GI50 with A498 renal is 0.0214 µM; in the assay with A549 NSCLC, 0.00797 µM; in the assay on ACHN renal, 0.025 µM; in the assay with CCRF-CEM leukemia, 0.0233 µM; in the assay on HS 578T breast, 0.0307 µM; in the assay with HT29 colon, 0.00995 µM. For the same compound, the GI50 is 0.0067 µM in the assay on LOX IMVI melanoma, 0.00333 µM with NCI-H23 lung, 0.0167 µM with SK-MEL-2 melanoma and 0.0184 µM with SNB-75 CNS. The TGI with A498 renal was 0.103 µM; with A549 NSCLC it was above 33.3 µM; in the assay with CCRF-CEM leukemia it was above 33.3 µM; in the assay on HS 578T breast, above 33.3 µM; in the assay with HT29 colon it was 0.0295 µM; in the assay on LOX IMVI melanoma it was 0.0325 µM. The TGI in the assay on NCI-H23 lung stood at 1.12 µM; with SK-MEL-2 melanoma, 0.0492 µM; in the assay on SNB-75 CNS, 3.32 µM.
`COc1cc(=O)oc(/C=C/C=C/C=C/C(C)=C\C2(C)OC(C)C(C)(O)C2O)c1C` (stereo unspecified): the TGI in the assay with A498 renal, in the assay with A549 NSCLC, with ACHN renal, in the assay on CCRF-CEM leukemia, in the assay on HS 578T breast and with HT29 colon was above 100 µM throughout. Moreover, the TGI with LOX IMVI melanoma, with NCI-H23 lung, in the assay with SK-MEL-2 melanoma and with SNB-75 CNS was above 100 µM throughout.
As for `N#Cc1ccc(NC(=O)Nc2nc3ccc(OC(F)(F)F)cc3s2)cc1`, the GI50 in the assay with A498 renal is 0.473 µM; in the assay with A549 NSCLC, 1.21 µM; in the assay on ACHN renal, 0.732 µM; in the assay on CCRF-CEM leukemia, 1.51 µM; in the assay with HS 578T breast, 1.78 µM; in the assay on HT29 colon, 2.07 µM. Also, the GI50 is 1.47 µM in the assay on LOX IMVI melanoma, 0.581 µM with NCI-H23 lung, 1.78 µM in the assay with SK-MEL-2 melanoma and 1.84 µM in the assay with SNB-75 CNS. In addition, the TGI in the assay on A498 renal was 4.41 µM; with A549 NSCLC, 11.1 µM; with ACHN renal, 7.05 µM; in the assay on CCRF-CEM leukemia, above 100 µM; in the assay on HS 578T breast it was 7.65 µM; with HT29 colon it was 10 µM. For the same compound, the TGI in the assay on LOX IMVI melanoma was determined as 4.67 µM; in the assay on NCI-H23 lung, 6.02 µM; in the assay with SK-MEL-2 melanoma, 4.25 µM; with SNB-75 CNS it was 7.19 µM.
Consider `CCC1(N)C(=O)OCc2c1cc1n(c2=O)Cc2cc3ccccc3nc2-1` (stereo unspecified), for which the GI50 in the assay on A498 renal is 10.6 µM; in the assay on A549 NSCLC it was 5.05 µM; with ACHN renal, 2.75 µM; with CCRF-CEM leukemia, 1.96 µM; in the assay with HS 578T breast, above 69.6 µM; with SK-MEL-2 melanoma, 48.8 µM. The TGI was 34.4 µM and 46.2 µM in the assay with A498 renal; above 100 µM in the assay on A549 NSCLC; 12.2 µM and 21.3 µM with ACHN renal; above 100 µM in the assay with HS 578T breast; above 100 µM with HT29 colon; 28.2 µM and 33.6 µM with LOX IMVI melanoma. In addition, the TGI in the assay on NCI-H23 lung is 38.2 µM and 54.4 µM; in the assay with SK-MEL-2 melanoma, above 100 µM; with SNB-75 CNS, above 78.9 µM.
